Results from paper PMC4774972, “Activity and Predicted Nephrotoxicity of Synthetic Antibiotics Based on Polymyxin B” (Journal of Medicinal Chemistry, 2016).
Converted amounts (≈) assume the structure as drawn. Numbered stars: 1 amine (or outer) side, 2 acyl side, 3 side chain; on linkers, the order of the positions; unused ones are H or OH. Bridge positions count the residues as written; N and C are the ends. Square brackets hold non-standard residues; d marks the D form. Peptide text beside a SMILES is read from it. * marks the point of attachment. Benzoyl(4-OPh) = O=C(c1ccc(Oc2ccccc2)cc1)*; Benzoyl(4-Ph) = O=C(c1ccc(-c2ccccc2)cc1)*; dGly(nOct) = CCCCCCCC[C@@H](N)C(=O)O; NH(2-ClPh) = Clc1ccccc1N*; dDab = NCC[C@@H](N)C(=O)O; hSer = N[C@@H](CCO)C(=O)O; Octanoyl = CCCCCCCC(=O)*; Dab = NCC[C@H](N)C(=O)O; CO = O=C([*:1])[*:2]

Experiments:
HepG2 cells = experiment: Cytotoxicity assay (resazurin assay); format: cell-based, human; conditions: 4000 cells/well, 24 h incubation with compound, fluorescence 560/590
Protocol: Cytotoxicity to HEK293 and HepG2 cells was determined using the resazurin assay.[67],[68] […] Compounds were then added into each well. After 24 h incubation, 5 μM resazurin was added per well and incubated at 37 °C for 2 h. Fluorescence intensity was then read using a Polarstar Omega with excitation/emission 560/590. The data were then analyzed using GraphPad Prism 6 software. CC50 values were determined using GraphPad Prism 6 software (Inc. La Jolla, CA).

HepG2 = conditions: CC50 HepG2 (µM)
[1] = test system: S. aureus ATCC 25923, MSSA; conditions: MIC S. aureus ATCC 25923, MSSA (µg/mL)
[2] = test system: K. pneumoniae CI Koprana 100650661:1, PmxR; conditions: MIC K. pneumoniae CI Koprana 100650661:1, PmxR (µg/mL)
[3] = test system: P. aeruginosa PA9704, PmxR; conditions: MIC P. aeruginosa PA9704, PmxR (µg/mL)
[4] = test system: A. baumannii CI Ptyela 100734512:2, PmxR; conditions: MIC A. baumannii CI Ptyela 100734512:2, PmxR (µg/mL)
[5] = test system: K. pneumoniae CI 138-16357-20362, PmxR; conditions: MIC K. pneumoniae CI 138-16357-20362, PmxR (µg/mL)
[6] = test system: P. aeruginosa FADDI-PA070, PmxR; conditions: MIC P. aeruginosa FADDI-PA070, PmxR (µg/mL)
[7] = test system: A. baumannii CI Ptyela 100734512:2, PmxR; experiment: microbe, parasite or virus in culture; format: cell-based, Acinetobacter baumannii; conditions: carbapenem & polymyxin resistant clinical isolate; MHB, 5 × 10^5 CFU/mL, 18 h at 37 °C
Protocol: (§1) Bacteria were either obtained from American Type Culture Collection (ATCC; Manassas, VA, USA) or independent academic clinical isolate collections, as listed in Table S2. Bacteria were cultured in nutrient broth (NB; Bacto Laboratories, catalog no. 234000) or Muller Hinton broth (MHB; Bacto Laboratories, catalog no. 211443) at 37 °C overnight with shaking (∼180 rpm). A sample of each culture was then diluted 50-fold in fresh MHB and incubated at 37 °C for 1.5–3 h with shaking (∼180 rpm). Compound stock solutions were prepared as 0.64 or 2.56 mg/mL in water. The compounds, at twice the final desired concentration, were serially diluted 2-fold across the wells of 96-well plates (Polystyrene, Corning, catalogue No. 3370). Mid log phase bacterial cultures (after 1.5–3 h incubation) were diluted to a final concentration of 5 × 10^5 colony forming units (CFU)/mL, and 50 μL was added to each well giving a final compound concentration range of 32 μg/mL to 0.015 μg/mL (128–0.06 μg/mL for colistin and polymyxin B against the polymyxin resistant clinical isolates). MICs were determined visually after 18 h of incubation at 37 °C, with the MIC defined as the lowest compound concentration at which no bacterial growth was visible.
(§2) Table S2. Bacterial strains used for Minimum Inhibitory Concentration (MIC) […]
(§3) Organism Strain Strain description Strain Source
(§4) Escherichia coli ATCC 25922 FDA strain Seattle 1946 ATCC
(§5) Klebsiella pneumoniae ATCC 13883 Control strain ATCC
(§6) Klebsiella pneumoniae ATCC 700603 Multi-drug resistant ATCC
(§7) Klebsiella pneumoniae BAA-2146 Metallo-beta-lactamase- ATCC
(§8) Acinetobacter baumannii ATCC 19606 Type strain ATCC
(§9) Pseudomonas aeruginosa ATCC 27853 Type strain ATCC
(§10) Pseudomonas aeruginosa FADDI-PA070 Clinical isolate, Nation and Li labs, polymyxin resistant Monash University
(§11) Clinical isolate, Wang Hengzhuang, Pseudomonas aeruginosa PA9704 polymyxin resistant University Hospital of […]
(§12) Ptyela Clinical isolate, Ilias Karaiskos and Acinetobacter baumannii Carbapenem & Helen Giamarellou
(§13) Clinical isolate, Medicine, Hygeia
(§14) Klebsiella pneumoniae Koprana Carbapenem, & General Hospital, […]
(§15) Clinical isolate, (Instituto Dante […]
(§16) polymyxin resistant Cardiologia, São […]

[8] = test system: K. pneumoniae CI Koprana 100650661:1, PmxR; experiment: microbe, parasite or virus in culture; format: cell-based, Klebsiella pneumoniae; conditions: carbapenem & polymyxin resistant clinical isolate; MHB, 5 × 10^5 CFU/mL, 18 h at 37 °C
Protocol: as §1, §2, §3, §4, §5, §6, §7, §8, §9, §10, §11, §12, §13, §14, §15, §16

[9] = test system: K. pneumoniae CI 138-16357-20362, PmxR; experiment: microbe, parasite or virus in culture; format: cell-based, Klebsiella pneumoniae
Protocol: as §1, §2, §3, §4, §5, §6, §7, §8, §9, §10, §11, §12, §13, §14, §15, §16

[10] = test system: P. aeruginosa PA9704, PmxR; format: cell-based, Pseudomonas aeruginosa; conditions: polymyxin resistant clinical isolate; MHB, 5 × 10^5 CFU/mL, 18 h at 37 °C
Protocol: as §1, §2, §3, §4, §5, §6, §7, §8, §9, §10, §11, §12, §13, §14, §15, §16

[11] = test system: S. aureus ATCC 25923, MSSA; experiment: microbe, parasite or virus in culture; format: cell-based, Staphylococcus aureus; conditions: MHB, 5 × 10^5 CFU/mL, read visually after 18 h at 37 °C
Protocol: as §1, §2, §3, §4, §5, §6, §7, §8, §9, §10, §11, §12, §13, §14, §15, §16

[12] = test system: primary human renal proximal tubule epithelial (hPT) cells; experiment: Nephrotoxicity assay, GGT release; format: cell-based; conditions: for release of GGT: at 100 μg/mL in the primary kidney cells; for GGT release CC50: primary human kidney cells
Excerpt: (§17) Primary human renal proximal tubule epithelial (hPT) cells were isolated and used for in vitro prediction of drug-induced nephrotoxicity[63],[64],[69] by measuring the release of metabolism enzymes, LDH and GGT, as previously described.[70]

[13] = test system: primary human renal proximal tubule epithelial (hPT) cells; experiment: Nephrotoxicity assay, LDH release; format: cell-based; conditions: for release of LDH: at 100 μg/mL in the primary kidney cells; for LDH release CC50: primary human kidney cells
Excerpt: as §17

E. coli ATCC 25922 = conditions: MIC E. coli ATCC 25922 (µg/mL)
P. aeruginosa ATCC 27853 = conditions: MIC P. aeruginosa ATCC 27853 (µg/mL)
K. pneumoniae ATCC 13883 = conditions: MIC K. pneumoniae ATCC 13883 (µg/mL)
[14] = test system: K. pneumoniae ATCC 700603, MDR; conditions: MIC K. pneumoniae ATCC 700603, MDR(µg/mL)
A. baumannii ATCC 19606 = conditions: MIC A. baumannii ATCC 19606 (µg/mL)
[15] = carbapenem & polymyxin resistant clinical isolate, MHB, 5 × 10^5 CFU/mL, 18 h at 37 °C

SMILES	HepG2 - CC50 (HepG2 cells) [µM]	CC50 (HepG2) [µM]	MIC [1] [µg/mL]	MIC [2] [µg/mL]	MIC [3] [µg/mL]	MIC [4] [µg/mL]	MIC [5] [µg/mL]	MIC [6] [µg/mL]	MIC A. baumannii CI Ptyela 100734512:2, PmxR [7] [µg/mL]	MIC K. pneumoniae CI Koprana 100650661:1, PmxR [8] [µg/mL]	MIC K. pneumoniae CI 138-16357-20362, PmxR [9, 15] [µg/mL]	MIC P. aeruginosa PA9704, PmxR [10] [µg/mL]	MIC S. aureus ATCC 25923, MSSA [11] [µg/mL]	release of GGT [12]	GGT release CC50 [12] [µg/mL]	release of LDH [13]	LDH release CC50 [13] [µg/mL]	MIC (P. aeruginosa ATCC 27853) [µg/mL]	MIC (K. pneumoniae ATCC 13883) [µg/mL]	also measured
CC(C)C[C@@H]1NC(=O)[C@@H](Cc2ccccc2)NC(=O)[C@H](CCN)NC(=O)[C@@H](NC(=O)[C@H](CCN)NC(=O)[C@@H](NC(=O)[C@H](CCN)NC(=O)Nc2ccccc2Cl)[C@@H](C)O)CCNC(=O)[C@H]([C@@H](C)O)NC(=O)[C@H](CCN)NC(=O)[C@H](CCN)NC1=O [Compound 13] ({NH(2-ClPh)-CO}-[Dab]T[Dab][Dab][Dab][dF]L[Dab][Dab]T; lactam 4-C)	>300	> 300	> 32	> 32	> 32	> 32	> 32	> 32	>32	>32	>32	>32	>32							
CC(C)C[C@@H]1NC(=O)[C@@H](Cc2ccccc2)NC(=O)[C@H](CCN)NC(=O)[C@@H](NC(=O)[C@H](CCN)NC(=O)[C@@H](NC(=O)[C@H](CCN)NC(=O)c2ccc(Oc3ccccc3)cc2)[C@@H](C)O)CCNC(=O)[C@H]([C@@H](C)O)NC(=O)[C@H](CCN)NC(=O)[C@H](CCN)NC1=O [Compound 14] ({Benzoyl(4-OPh)}-[Dab]T[Dab][Dab][Dab][dF]L[Dab][Dab]T; lactam 4-C)		287	> 32	> 32			> 32			>32				almost no release	>128	almost no release	>128			MIC K. pneumoniae CI 138-16357-20362, PmxR ([9]; CI 138-16357-20362, PmxR, 18 h): >32 µg/mL
CCCCCCCC[C@H]1NC(=O)[C@H](CCN)NC(=O)[C@@H](NC(=O)[C@H](CCN)NC(=O)[C@@H](NC(=O)[C@H](CCN)NC(=O)CCCCCCC)[C@@H](C)O)CCNC(=O)[C@H]([C@@H](C)O)NC(=O)[C@H](CCN)NC(=O)[C@H](CCN)NC(=O)[C@H](CC(C)C)NC1=O (Octanoyl-[Dab]T[Dab][Dab][Dab][dGly(nOct)]L[Dab][Dab]T; lactam 4-C)		254	16 (≈ 13.2 µM)	16 (≈ 13.2 µM)	8 (≈ 6.6 µM)	16 (≈ 13.2 µM)	16 (≈ 13.2 µM)											2 (≈ 1.65 µM)	2 (≈ 1.65 µM)	MIC (E. coli ATCC 25922): 2 µg/mL (≈ 1.65 µM)
CC(C)C[C@@H]1NC(=O)[C@@H](Cc2ccccc2)NC(=O)[C@H](CCN)NC(=O)[C@@H](NC(=O)[C@H](CCN)NC(=O)[C@@H](NC(=O)[C@H](CCN)NC(=O)c2ccc(-c3ccccc3)cc2)[C@@H](C)O)CCNC(=O)[C@H]([C@@H](C)O)NC(=O)[C@H](CCN)NC(=O)[C@H](CCN)NC1=O [Compound 10] ({Benzoyl(4-Ph)}-[Dab]T[Dab][Dab][Dab][dF]L[Dab][Dab]T; lactam 4-C)		298	> 32	> 32	> 32		> 32			>32	>32			almost no release	>128	almost no release	>128			
CCCCCCCC(=O)N[C@@H](CCN)C(=O)N[C@H](C(=O)N[C@@H](CCN)C(=O)N[C@H]1CCNC(=O)[C@H]([C@@H](C)O)NC(=O)[C@H](CCN)NC(=O)[C@H](CCN)NC(=O)[C@H](CC(C)C)NC(=O)[C@@H](Cc2ccccc2)NC(=O)[C@H](CCO)NC1=O)[C@@H](C)O [Compound 33] (Octanoyl-[Dab]T[Dab][Dab][hSer][dF]L[Dab][Dab]T; lactam 4-C)		> 300	> 32	> 32	> 32	> 32	> 32	> 32		>32	>32							> 32	> 32	MIC [14]: > 32 µg/mL; MIC (A. baumannii ATCC 19606): > 32 µg/mL
CC(C)C[C@@H]1NC(=O)[C@@H](Cc2ccccc2)NC(=O)[C@H](CCN)NC(=O)[C@@H](NC(=O)[C@@H](CCN)NC(=O)[C@@H](NC(=O)[C@H](CCN)NC(=O)Nc2ccccc2Cl)[C@@H](C)O)CCNC(=O)[C@H]([C@@H](C)O)NC(=O)[C@H](CCN)NC(=O)[C@H](CCN)NC1=O [Compound 16] ({NH(2-ClPh)-CO}-[Dab]T[dDab][Dab][Dab][dF]L[Dab][Dab]T; lactam 4-C)	>300	> 300	> 32	> 32	> 32	> 32	> 32		>32	>32	>32	>32	>32							
